Tests used:
[1] = tested on: Molt-4 cells; assay: Inhibition of growth of acute lymphoblastic leukemia Molt-4 cells by MTT method; format: cell-based; conditions: Homo sapiens, 10^−6M, 72 hours, read-out: The inhibition percentage of cell proliferation by the compounds with a concentration of 10^−6M, Molt-4 cells
Description: B: Inhibition of Growth of Acute Lymphoblastic Leukemia Molt-4 Cells by the Compounds Detected by MTT Method
(§1) The acute lymphoblastic leukemia Molt-4 cells from ATCC were maintained in RPMI-1640 and 10% fetal calf serum at 37° C. in a 5% CO2 atmosphere. The cells were subseeded in a 96-well culture plate at a concentration of 6×10^3 cells/well and maintained RPMI-1640 and 10% fetal calf serum at 37° C. 5%CO2 atmosphere. Molt-4 cells were treated with a test compound dissolved in DMSO at the concentration of 0, 10^−4M, 10^−5M, 10^−6M, 10^−7M, 10^−8M for 72 hours. OD value was tested by MTT method, and the inhibition ratio was calculated.

[2] = tested on: human breast cancer BCAP-37 xenograft tumor; assay: Inhibition of growth of human breast cancer BCAP-37 cells xenograft tumor in nude mice; format: in vivo; conditions: BCAP-37 tumor bearing nude mice, 0.7 mg/mouse/day, 20 days of continuous administration, FIG. 9
Description: Nude mice with breast cancer xenografts were treated with the test compounds to test their effect on inhibiting tumor growth. Tumor tissues were taken from nude mice bearing BCAP-37 breast cancer and cut into small pieces. Several pieces of the tumor tissues were implanted into the armpit under the right front limb of female nude mice. After the implantation, the mice are fed with E2β solution once a day at the dosage of 7 μg per mouse for 6 days to stimulate growth of tumor in the experiment mice. Starting on the seventh day, the mice were intragastric administered with the test solution containing the compounds and corn oil at the dosage of 35 mg/kg. Tamoxifen was used as a positive control. Corn oil was used as a negative control. The test solution was prepared by dispersing test compound in corn oil solution. (20 mg/mL). […] Then the mice were sacrificed and the tumor tissues were dissected and weighed. The tumor growth inhibition rate was a percentage calculated using the formula: tumor growth inhibition rate=(average weight of the tumor in the negative control−average weight of the tumor treated with test compound)/average weight of the tumor in the negative control.

[3] = tested on: lung cancer H460 cells; assay: Inhibition of lung cancer cells H460 in vitro by MTT method; format: cell-based; conditions: Homo sapiens, NCI-H460, 72 hours, FIG. 5, read-out: IC50, in vitro inhibition on cell line H460 of lung cancer
Description: A: Inhibition of Lung Cancer Cells H460 In Vitro by the Compounds by MTT Method
(§2) The lung cancer H460 cells were subseeded in a 96-well culture plate at a concentration of 4.0×10^3 cells/well and maintained in phenol red free medium containing 2.5% CS-FBS at 37° C. in a 5% CO2 atmosphere. H460 cells were treated with a test compound dissolved in DMSO at the concentration of 0, 1, 2, 4, 8, 10 and 20 μM for 72 hours. OD value was tested by MTT method, and the inhibition percentage was calculated.

[4] = tested on: prostate cancer cells PC-3; assay: Inhibition of prostate cancer cells PC-3 in vitro by MTT method; format: cell-based; conditions: PC-3, MTT, 72 hours, FIG. 8; read-out: IC50, in vitro inhibition on cell line PC-3 of prostatic cancer
Description: A: Inhibition of Prostate Cancer Cells PC-3 In Vitro by the Compounds by MTT Method
The […] cancer PC-3 cells were subseeded in a 96-well culture plate at a concentration of 3×10^3 cells/well and maintained in medium containing 10% F12K fetal bovine serum. PC-3 cells were treated with the test compound dissolved in DMSO at the concentration of 0, 1, 2, 4, 8, 10 and 20 μM for 72 hours. OD value was tested by MTT method, and the inhibition percentage was calculated.

[5] = tested on: HL-60 cells; assay: Inhibition of growth of acute myeloblastic leukemia HL-60 cells by MTT method; format: cell-based, human; conditions: Homo sapiens, 10^−6M, 72 hours, read-out: The inhibition percentage of cell proliferation by the compounds with a concentration of 10^−6M, HL-60 cells
Description: A: Inhibition of Growth of Acute Myeloblastic Leukemia HL-60 Cells by the Compounds Detected by MTT Method
as §1, with “myeloblastic” for “lymphoblastic”, “HL-60” for “Molt-4”, “IMDM” for “RPMI-1640”, “cells/well. HL-60” for “cells/well and maintained RPMI-1640 and 10% fetal calf serum at 37° C. 5%CO2 atmosphere. Molt-4”

[6] = tested on: K562 cells; assay: Viability of chronic leukemia cells K562 by CellTiter-Glo Luminescent Assay in vitro; format: cell-based, human; conditions: Homo sapiens, 72 hours, read-out: Inhibition of viability of cells in vitro IC50, K562 cells
Description: A: Detection of Viability of Chronic Leukemia Cells K562 by CellTiter-Glo® Luminescent Assay In Vitro
The chronic leukemia cells K562 from ATCC were maintained in IMDM and 10% fetal calf serum at 37° C. in a 5% CO2 atmosphere. The cells were subseeded in a 96-well culture plate at a cencentration of 6×10^3 cells/well.K562 cells were treated with a test compound dissolved in DMSO at the concentration of 0, 0.3 μM, 0.5 μM, 1 μM, 2 μM, 3 μM, 5 μM, 10 μM, 20 μM, 30 μM, 50 μM and 100 μM for 72 hours. Treated cells were examined by CellTiter-Glo® Luminescent Cell Viability Assay Kit (Promega), and luminescence were recorded with Envision.

[7] = tested on: colon cancer LS174T cells; assay: Inhibition of colon cancer cells LS174T in vitro by MTT method; format: cell-based; conditions: Homo sapiens, 72 hours, FIG. 6, read-out: IC50, in vitro inhibition on cell line LS174T of colon carcinoma
Description: A: Inhibition of Colon Cancer Cells LS174T In Vitro by the Compounds by MTT Method
as §2, with “colon” for “lung”, “LS174T” for “H460”, “4.5×10^3” for “4.0×10^3”, “free 1640” for “free”

IC50 [3]: 1000 to 4000 nM | IC50 [4]: 1000 to 4000 nM | IC50 [6]: 1040 nM | IC50 [7]: 1000 to 4000 nM
Compound: CC(C)=CCc1c(O)cc(O)c2c(=O)c(O)c(-c3ccc(C(F)(F)F)cc3)oc12 [Compound 1, 2-(4-trifluoromethylphenyl)-3,5,7-trihydroxy-8-(3-methyl-2-buten-1-yl)-4H-chromen-4-one]
inhibition at 1 µM [1]: 43.7% | average tumor weight, inhibition on the tumors [2]: inhibition of compound on the tumors | inhibition at 1 µM [5]: 60.7%

Reference: patent publication US9221781B2, “Synthesis of polyhydroxy chromenone compounds and their anti-tumor effects” (BEIJING SHENOGEN PHARMA GROUP LTD., priority 2012, dated 2015)
